ChEMBL document CHEMBL4219267, “Design and synthesis of plant cyclopeptide Astin C analogues and investigation of their immunosuppressive activity” (Bioorg Med Chem Lett, 2018)
Numbered stars: 1 amine (or outer) side, 2 acyl side, 3 side chain; on linkers, the order of the positions; unused ones are H or OH. Square brackets hold non-standard residues; d marks the D form. Peptide text beside a SMILES is read from it. β3hPhg = O=C(C[C@@H](N[*:1])c1ccccc1)[*:2]; ΔPro = O=C(O)[C@@H]1C=CCN1; Abu = CC[C@H](N)C(=O)O

Assay: Immunosuppressive activity in C57BL/6 mouse lymph node cells after 24 hrs by MTT assay
Format: functional
Conditions: C57BL/6, 24 h

## CCCCCCC[C@@H]1NC(=O)[C@H](CC)NC(=O)C[C@H](c2ccccc2)NC(=O)[C@H](CO)NC(=O)[C@H](CC)NC1=O
  IC50: 65.2 µM

## CC[C@@H]1NC(=O)C[C@H](c2ccccc2)NC(=O)[C@H](CC)NC(=O)C[C@H](c2ccccc2)NC(=O)[C@H](CO)NC1=O
  IC50: 61.8 µM

## CC[C@@H]1NC(=O)C[C@H](c2ccccc2)NC(=O)[C@H](CO)NC(=O)[C@H](CC)NC1=O
  IC50: > 100 µM

## CC[C@@H]1NC(=O)C[C@H](c2ccccc2)NC(=O)[C@H](CO)NC(=O)[C@H](CC)NC(=O)[C@H]([C@H](C)OC(=O)c2ccc[nH]2)NC1=O
  IC50: > 100 µM

## CC[C@@H]1NC(=O)[C@@H]2[C@@H](O)[C@@H](O)CN2C(=O)[C@H](CC)NC(=O)C[C@H](c2ccccc2)NC(=O)[C@H](CO)NC1=O
  IC50: > 100 µM

## CC[C@@H]1NC(=O)C[C@H](c2ccccc2)NC(=O)[C@H](CO)NC(=O)[C@H](CC)NC(=O)[C@@H]([C@@H](C)O)NC1=O
  IC50: 38.4 µM

## CC[C@@H]1NC(=O)[C@@H]2[C@H](Cl)[C@H](Cl)CN2C(=O)[C@H](CC)NC(=O)C[C@H](c2ccccc2)NC(=O)[C@H](CO)NC1=O
  IC50: 12.6 µM

## CC[C@@H]1NC(=O)C[C@H](c2ccccc2)NC(=O)[C@H](CO)NC(=O)[C@H](CC)NC(=O)[C@@H]([C@H](C)O)NC1=O
  IC50: 51.8 µM

## CC[C@@H]1NC(=O)C[C@H](c2ccccc2)NC(=O)[C@H](CO)NC(=O)[C@H](CC)NC(=O)[C@H]([C@@H](C)O)NC1=O
  IC50: > 100 µM

## CC[C@@H]1NC(=O)C[C@H](c2ccccc2)NC(=O)[C@H](CO)NC(=O)[C@H](CC)NC(=O)[C@H]([C@H](C)O)NC1=O
  IC50: > 100 µM

## CC[C@@H]1NC(=O)C[C@H](c2ccccc2)NC(=O)[C@H](CO)NC(=O)[C@H](CC)NC(=O)[C@H](C)NC1=O (cyclo(A[Abu]S[β3hPhg][Abu]))
  IC50: > 100 µM

## CC[C@@H]1NC(=O)C[C@H](c2ccccc2)NC(=O)[C@H](CO)NC(=O)[C@H](CC)NC(=O)[C@H](Cc2c[nH]cn2)NC1=O (cyclo([Abu]H[Abu]S[β3hPhg]))
  IC50: > 100 µM

## CC[C@@H]1NC(=O)C[C@H](c2ccccc2)NC(=O)[C@H](CO)NC(=O)[C@H](CC)NC(=O)[C@H](CCCCN)NC1=O (cyclo([Abu]K[Abu]S[β3hPhg]))
  IC50: > 100 µM

## CC[C@@H]1NC(=O)C[C@H](c2ccccc2)NC(=O)[C@H](CO)NC(=O)[C@H](CC)NC(=O)[C@H](CC(C)C)NC1=O (cyclo([Abu]L[Abu]S[β3hPhg]))
  IC50: > 100 µM

## CC[C@@H]1NC(=O)C[C@H](c2ccccc2)NC(=O)[C@H](CO)NC(=O)[C@H](CC)NC(=O)[C@H](CCCNC(=N)N)NC1=O (cyclo([Abu]R[Abu]S[β3hPhg]))
  IC50: > 100 µM

## CC[C@@H]1NC(=O)C[C@H](c2ccccc2)NC(=O)[C@H](CO)NC(=O)[C@H](CC)NC(=O)[C@H](C(C)C)NC1=O (cyclo([Abu]S[β3hPhg][Abu]V))
  IC50: > 100 µM

## CC[C@@H]1NC(=O)C[C@H](c2ccccc2)NC(=O)[C@H](CO)NC(=O)[C@H](CC)NC(=O)[C@H](Cc2ccc(O)cc2)NC1=O (cyclo([Abu]S[β3hPhg][Abu]Y))
  IC50: > 100 µM

## CC[C@@H]1NC(=O)[C@@H]2C=CCN2C(=O)[C@H](CC)NC(=O)C[C@H](c2ccccc2)NC(=O)[C@H](CO)NC1=O (cyclo([Abu]S[β3hPhg][Abu][ΔPro]))
  IC50: > 100 µM
